One test relates to atherosclerotic lesions. Put plainly: Lipid accumulation and atherosclerotic lesions in ApoE-deficient mice on high fat diet. The class given is in vivo. Particulars: 23.5 mg/kg 3 times a week i.p., 8 weeks. Here is the method:
ApoE-deficient mice at 6 weeks were placed on a Western high fat diet containing 1.25% cholesterol and 21% fat (Research. Diets). The mice were simultaneously treated with vehicle (PBS), 5-MTP or 5-MTPE (23.4 mg/kg body weight, 3 times a week) by intraperitoneal injection. After 8 weeks, the aortic trees were dissected and lesions examined in the aortic arch and its branches. The aortas were carefully freed of connective and adipose tissue under a dissection microscope, opened longitudinally and stained with Oil red 0.
Since reduction of serum 5-MTP in CAD patients may be associated with the development of vascular disease, we determined whether exogenous 5-MTP derivatives exert protective effect in the development of atherosclerosis. ApoE-deficient mice were fed a Western high fat diet containing 1.25% cholesterol and 21% fat (Research Diets) starting at 6 weeks of age. The mice were simultaneously treated with vehicle (PBS), 5-MTP or 5-MTPE (23.5 mg/kg body weight, 3 times a week) by intraperitoneal injection. After 8 weeks, the aortic trees were dissected and lesions examined in the aortic arch and its branches.

In another test the test system is T47D breast cancer cells. Put plainly: Transwell cell migration assay, T47D. The class given is cell-based. The following applies: 30 min pretreatment, PMA 4 h or 24 h. On the procedure: (§1) Briefly, cells (10^4/well) were seeded on the upper chamber (6.5-mm insert, 8-μm polycarbonate membrane; Corning Inc.), which was placed in each well of a 24-well plate. The lower chamber was filled with 700 μL DMEM supplemented with 10% FBS. For assessment of in vitro invasion, cells were seeded onto the upper chamber insert coated with Matrigel (BD Biosciences) under the same conditions as the transwell migration assays. At the indicated time, nonmigrated cells that remained at the top surface of the insert were removed with a cotton swab. Cells that migrated to the lower membrane surface and cells that invaded through the matrigel gel to the underside of the membrane were fixed, stained with 0.1% crystal violet for 20 min, and counted under light microscopy. All of the assays were done in triplicate with excellent reproducibility.
(§2) Lung cancer A549 and breast cancers BT474 and T47D cells were pretreated with different concentrations of 5-MTP or 5-MTPE for 30 min, then stimulated with PMA for 4 h or 24 h. Cell migration was measured by the transwell migration assay.

For another test, the system named is A549 subcutaneous tumor. Put plainly: Tumor xenograft experiment (A549 s.c. in SCID mice). The class given is in vivo. The following applies: 100 mg/kg intraperitoneal twice weekly; for subcutaneous tumor volume: 7 weeks. On the procedure:
Six-week-old male CB-17 SCID mice, purchased from BioLASCO, were housed in a daily cycle of 12-h light and 12-h darkness and pathogen-free conditions at 26° C. at the Animal Center of the National Health Research Institutes. A549-luc-C8 cells (Caliper Life Sciences), cultured in RPMI-1640 supplemented with 10% FBS, were pretreated with 100 μM 5-MTP, 100 μM 5-MTPE or vehicle for 5 h and were inoculated into the flank of mice subcutaneously (s.c.) (5×10^6 cells/mouse). The 5-MTP-, or 5-MTPE-treated mice (n=10) were injected with 100 mg 5-MTP or 5-MTPE /kg body weight intraperitoneally twice weekly. The vehicle group (n=10) was injected with vehicle (0.033 N HCl in RPMI medium, neutralized with NaOH) twice weekly. The size of s.c. tumors were caliper-measured twice weekly. The tumor volume was calculated according to the formula of length×width×width/2. The tumor growth was also monitored weekly by an IVIS spectrum imaging system. Mice were euthanized at day 52. Subcutaneous tumors and lungs were removed and fixed with 10% Formalin. Nodules on each lobe of the lungs were counted. Histology of the nodules was examined under microscopy by tissue section and H&E staining. The animals' care was in accordance with institutional guidelines and the protocol of in vivo experiments was approved by the Institutional Animal Care and Utilization Committee of the National Health Research Institutes.
In addition, A549 (5×10^6 cells) was injected subcutaneously into the flank of SCID-Beige mice. 10 mice each received intraperitoneal injection of 5-MTP (100 mg/kg), 5-MTPE (100 mg/kg) or vehicle twice weekly. Caliper measurement of the subcutaneous tumor volume periodically for 7 weeks. […] The average tumor volume at 7-week in the 5-MTP treated group was ˜50% of that in the control group.

The next test deals with A549 lung cancer cells. Put plainly: Transwell cell migration assay, A549. Particulars: 30 min pretreatment, PMA 4 h or 24 h. Format: cell-based. Here is the method:
as §1, §2

Test [1] relates to vascular smooth muscle cells. Put plainly: Calcifying medium-induced calcification in vascular smooth muscle cells. Format: cell-based. The source says: Vascular smooth muscle cell (VSMC) calcification is the major phenomenon to induce atherosclerotic vascular calcification in cardiovascular disease (CVD). We next investigated the effect of 5-MTP derivatives on VSMC calcification.

The subject of test [2] is BT474 breast cancer cells. Put plainly: Transwell cell migration assay, BT474. The class given is cell-based. Particulars: 30 min pretreatment, PMA 4 h or 24 h. Here is the method: as §1, §2
A further test relates to LPS-induced endotoxemia. Format: in vivo. Here is the method: C57BL/6 mice (6-8 wks old) were treated intraperitoneally with saline or with different concentrations of 5-MTP (23.4 or 100 mg/kg) for 30 min before intraperitoneal administration of LPS (60 mg/kg). Animals were monitored for survival and other clinical signs including ruffled fur, lethargy, diarrhea, and body weight loss. Some animals were sacrificed at different times after LPS injection. Blood samples, peritoneal exudates, lungs, and spleens were collected. All mouse experiments were approved by the institutional Animal Care and Use Committee, National Health Research Institutes.
Since suppression of 5-MTP by endotoxemia could contribute to uncontrolled macrophage overproduction of proinflammatory cytokines and mediators, we determined whether exogenous 5-MTP administration rescues mice from LPS-induced systemic inflammation, organ damage and mortality. Mice were injected with saline, 5-MTP (23.4 mg/kg), 5-MTPE (25 mg/kg) or vehicle for 30 min, followed by LPS (60 mg/kg) (saline, n=25; 5-MTP, n=7; 5-MTPE, n=7; LPS, n=30; LPS+5-MTP, n=25; LPS+5-MTPE, n=25). Survival was monitored during the next 72 h. *P<0.001 compared to LPS treatment.

Where [3] appears, read: 5-MTP 23.4 mg/kg 30 min before LPS 60 mg/kg.

For `COc1ccc2[nH]cc(C[C@H](N)C(=O)O)c2c1` [5-MTP, 5-methoxytryptophan], in the test with atherosclerotic lesions (ApoE-deficient mice), the “lipid accumulation in the arteries” value is “less lipid accumulation”. For the same compound, the “PMA-induced T47D cell migration” value in the test with T47D breast cancer cells is on record as “abrogated”. For the same compound, in the test on A549 subcutaneous tumor, the “average tumor volume at 7-week, of that in the control group” value is about 50% and the subcutaneous tumor volume result was “suppressed tumor volume in a time-dependent manner”. For the same compound, the “PMA-induced A549 cell migration” value in the test on A549 lung cancer cells is on record as “abrogated”. Moreover, the calcifying medium-induced calcification entry in test [1] is given as “reduced”. The “PMA-induced BT474 cell migration” value in test [2] is listed as “abrogated”. In the test on LPS-induced endotoxemia (setting [3]), the “endotoxemic mice died at day 3” value was found to be 20% and the “mice died at day 1” value is “none”.
Turning to `COC(=O)C(N)Cc1c[nH]c2ccc(OC)cc12` (stereo not shown) [5-MTPE, ester-5-MTP], the “lipid accumulation in atherosclerotic lesions (Oil red O)” value with atherosclerotic lesions is listed as “suppressed lipid accumulation”. Besides, the “PMA-induced T47D cell migration” value in the test with T47D breast cancer cells is “abrogated”. In addition, the subcutaneous tumor volume entry in the test with A549 subcutaneous tumor is on record as “suppressed tumor volume in a time-dependent manner”. The “PMA-induced A549 cell migration” value in the test with A549 lung cancer cells was “abrogated”. Further, the calcifying medium-induced calcification result in test [1] is recorded as “reduced”. For the same compound, in test [2], the “PMA-induced BT474 cell migration” value is recorded as “abrogated”. Also, the “protective capacity in LPS-induced lethal endotoxemia” value in the test on LPS-induced endotoxemia (5-MTPE 25 mg/kg 30 min before LPS 60 mg/kg, 72 h) amounted to 100%.

The record behind these values is patent publication US10577322B2, “5-methoxytryptophan and its derivatives and uses thereof” (National Health Research Institutes, priority 2015, dated 2020).
